Laboratory results: patent US20120258975A1, “Potent Small Molecule Inhibitors of Autophagy, and Methods of Use Thereof” (Shanghai Institute of Organic Chemistry, priority 2009, published 2012)
“And” between values parts separate entries of the source, which are not always exact repeats. Identical values can stand only once. Like-named read-outs stand apart in the source and are kept apart here.

Experiments:
[1] = system: LC3-GFP (H4-LC3 cells); experiment: LC3-GFP image-based autophagy assay in H4-LC3 cells; format: cell-based
Protocol: FIG. 1 relates to identification of a small molecule inhibitor of autophagy by an image-based screen. A, structure of MBCQ. B, Quantitative analysis of LC3-GFP spot number per cell (a), spot size per cell (b), spot intensity per cell (c). The data are expressed as % of control vehicle treated cells. H4-LC3 cells were seeded in 96 well-plates and incubated with vehicle control (1% DMSO), 0.2 μM rapamycin with or without 10 μM MBCQ for indicated time, fixed with 4% paraformaldehyde and stained with 4,6-diamidino-2-phenylindole (DAPI, 3 μg/ml). Images of 1000 cells for each compound treatment were analyzed by ArrayScan HCS 4.0 Reader with a 20× objective (Cellomics, Pittsburgh, Pa.).
(§1) FIG. 14 depicts MBCQ derivatives that can inhibit autophagy. To calculate EC50, H4-LC3 cells were seeded in 96 well-plates and cultured in the presence of compounds in different concentration for 24 h, and then fixed with polyformate and stained with 4,6-diamidino-2-phenylindole (DAPI, 3 μg/ml). Images data were collected with an ArrayScan HCS 4.0 Reader with a 20× objective (Cellomics, Pittsburgh, Pa.) for DAPI labeled nuclei and GFP-LC3, a marker for autophagy. The Spot Detector Bio-Application was used to acquire and analyze the images after optimization. Images of 1000 cells for each compound treatment were analyzed to obtain average cell number per field, fluorescence spot number, area and intensity per cell. DMSO and rapamycin were used as negative or positive control, respectively. The percentages of changes of LC3-GFP were calculated by dividing with that of DMSO treated samples. Each treatment was done in triplicate for mean and SD. The images were also analyzed using a conventional fluorescence microscope for visual inspection. The experiments were repeated three times
as §1, with “15” for “14”, “with reduced or no ability to” for “that can”, “times.” for “times”
To explore the mechanism of autophagy and identify additional small molecules that can activate it, a high-throughput image-based screen for autophagy regulators was developed. This system takes advantage of the localization of light chain 3 coupled to GFP (LC3-GFP) to autophagosomal membrane upon induction of autophagy (Zhang, L., Yu, J., Pan, H., Hu, P., Hao, Y., Cai, W., Zhu, H., Yu, A. D., Xie, X., Ma, D., et al. (2007). Small molecule regulators of autophagy identified by an image-based high-throughput screen. Proc Natl Acad Sci USA 104, 19023-19028). […] Compounds that increase cellular levels of LC3-GFP, however, are not necessarily able to increase degradative activity of autophagy. Instead, the increases of LC3-GFP may be associated with cell death or may be a result of lysosomal defect and thus associated with blockage of autophagy. […]

[2] = system: Vps34 complexes; experiment: Levels of endogenous Beclin1, Vps34, Atg14L in H4 and 293T cells (western blot); conditions: for levels of endogenous Beclin1 in the presence of CHX: 293T cells, 6 h, versus CHX alone; for levels of endogenous Beclin1, Vps34 and Atg14L: H4 cells and 293T cells, 10 μM, 3-MA 10 mM
Protocol: Twenty-four hours after the transfection, the cells were treated with indicated compounds for 12 h. The cell lysates were analyzed by western blotting using anti-HA, anti-flag or anti-tubulin. […] The cell lysates were harvested and analyzed by western blotting using: anti-Beclin1, anti-Atg14, anti-Vps34 and anti-UVRAG. Anti-α-tubulin was used as loading controls. […] The cell lysates were harvested and analyzed by western blotting using: anti-Beclin1 and anti-LC3. Anti-α-tubulin was used as loading controls.

[3] = system: PI3P (FYVE-RFP); experiment: FYVE-RFP spots in H4-FYVE cells; format: cell-based; conditions: 10 μM; for levels of FYVE-RFP spots: basal and rapamycin treated H4 cells
Protocol: H4-FYVE cells were treated with DMSO (0.1%), MBCQ (10 μM) or C43 (spautin) (10 μM) for indicated time. A, The images were analyzed by fluorescence microscopy and quantified by HCS after fixing in 4% paraformaldehyde and stained with 4,6-diamidino-2-phenylindole (DAPI, 3 μg/mL). Images of 1000 cells for each compound treatment were analyzed by ArrayScan HCS 4.0 Reader with a 20× objective (Cellomics, Pittsburgh, Pa.). B, H4-FYVE cells were treated with DMSO (0.1%), RAPA (0.2 μM) alone, MBCQ (10 μM) or C43 (spautin) (10 μM) with or without RAPA (0.2 uM) for 8 h. The cell lysates were collected for western blotting using anti-RFP and anti-tubulin as a loading control.
The levels of PtdIns3P (PI3P) are known to play a critical role in mediating autophagy (Levine, B., and Klionsky, D. J. (2004). Development by self-digestion: molecular mechanisms and biological functions of autophagy. Dev Cell 6, 463-477). To ask if MBCQ has an effect on PI3P, H4 cells expressing FYVE-RFP were used. FYVE binds specifically to PI3P and is widely used as a marker for cellular levels for PI3P (Gaullier, J. M., Simonsen, A., D'Arrigo, A., Bremnes, B., Stenmark, H., and Aasland, R. (1998). FYVE fingers bind PtdIns(3)P. Nature 394, 432-433).

[4] = system: H4 cells; experiment: Electron microscopy of H4 cells; format: cell-based
Protocol: FIG. 3 depicts electron microscopy analysis of the effect of MBCQ on autophagy. H4 cells were treated with 0.1% DMSO (vehicle), rapamycin (0.2 μM), MBCQ (10 μM), or MBCQ and rapamycin for 4 h. The cells were processed and imaged by EM.
The ultra-structure of cells treated with rapamycin was determined in the presence or absence of MBCQ. […] Treatment of rapamycin led to the formation of a large numbers of autophagosomes with characteristic double membrane.

[5] = system: MEF cells; experiment: Electron microscopy of MEF cells; format: cell-based, mouse; conditions: rapamycin (0.2 μM) plus compound, 4 h
Protocol: FIG. 5 depicts results related to showing that active derivatives of MBCQ reduce the levels of LC3II in MEF cells. […] The cell lysates were collected for western blotting using anti-LC3 antibody. B, Electron microscopy confirmation of the autophagy inhibitory effects of C43 (spautin) on MEF cells. MEF cells were treated with vehicle control (1‰ DMSO), and other indicated compounds for 4 h. Rapamycin (0.2 μM) and C43 (spautin) (10 μM). Then the cells were fixed with glutaraldehyde and prepared the sample for EM assay. Bar, 1:11,000. Arrows indicate double and multi-membrane autophagosomic vesicles. N: nucleus.
The effect of C29 and C43 on autophagy was further confirmed by electron microscopy. In rapamycin treated MEF cells, numerous autophagosome vesicles with double membranes were observed, as well as many vesicles with multi-membrane as expected (FIG. 5B).

SMILES: Clc1ccc2ncnc(NCc3ccc4c(c3)OCO4)c2c1 [MBCQ]
- fold more potent than 3-MA ([1]; IC50 versus 3-MA working concentration of 10 mM): about 10,000 fold
- LC3-GFP dots (number, spot size, spot intensity) ([1]; basal and rapamycin (0.2 μM) stimulated, 10 μM MBCQ): reduced the number, spot size as well as spot intensity
- IC50 ([1]; rapamycin and MBCQ together versus rapamycin alone, read-out: IC50 (intensity of LC3-GFP)): 788 nM
- levels of endogenous Beclin1 in the presence of CHX [2]: notably lower
- levels of endogenous Beclin1, Vps34 and Atg14L [2]: reduce the levels of endogenous Beclin1, Vps34 and Atg14L
- levels of FYVE-RFP spots [3]: rapidly and effectively reduced the levels of FYVE-RFP spots
- cell morphology ([4]; MBCQ alone for 4 h): morphologically similar to that control
- double membrane autophagosomes ([4]; rapamycin (0.2 μM) and MBCQ (10 μM) together, 4 h): conspicuously absent

SMILES: Fc1ccc(CNc2ncnc3ccc(F)cc23)cc1 [C43, 6-fluoro-N-(4-fluorobenzyl)quinazolin-4-amine]
- IC50 ([1]; cell-based assays, read-out: IC50, inhibition of autophagy): 870 nM and ~800 nM
- levels of endogenous Beclin1 in the presence of CHX [2]: notably lower
- levels of endogenous Beclin1, Vps34 and Atg14L [2]: reduce the levels of endogenous Beclin1, Vps34 and Atg14L
- autophagosomes [5]: autophagosomes are largely absent
- protein levels of FYVE-RFP by western blotting [3]: no effect on the protein levels of FYVE-RFP
- levels of FYVE-RFP spots [3]: reduce FYVE-RFP spots
